Values of other authors, collected in patent US11491229B2, “Medication system” (priority 2015, dated 2022).

Tests used:
CB1 receptor = CB1 receptor (Homo sapiens, UniProt P21554)
[1] = not given; remark: listed apart in the source
prostate cell line, PC-3 = conditions: Ruiz et al. 1999
[2] = target: T1, androgen receptor in the prostate gland (Homo sapiens, UniProt P10275)
T1 sequence (P10275 1-920): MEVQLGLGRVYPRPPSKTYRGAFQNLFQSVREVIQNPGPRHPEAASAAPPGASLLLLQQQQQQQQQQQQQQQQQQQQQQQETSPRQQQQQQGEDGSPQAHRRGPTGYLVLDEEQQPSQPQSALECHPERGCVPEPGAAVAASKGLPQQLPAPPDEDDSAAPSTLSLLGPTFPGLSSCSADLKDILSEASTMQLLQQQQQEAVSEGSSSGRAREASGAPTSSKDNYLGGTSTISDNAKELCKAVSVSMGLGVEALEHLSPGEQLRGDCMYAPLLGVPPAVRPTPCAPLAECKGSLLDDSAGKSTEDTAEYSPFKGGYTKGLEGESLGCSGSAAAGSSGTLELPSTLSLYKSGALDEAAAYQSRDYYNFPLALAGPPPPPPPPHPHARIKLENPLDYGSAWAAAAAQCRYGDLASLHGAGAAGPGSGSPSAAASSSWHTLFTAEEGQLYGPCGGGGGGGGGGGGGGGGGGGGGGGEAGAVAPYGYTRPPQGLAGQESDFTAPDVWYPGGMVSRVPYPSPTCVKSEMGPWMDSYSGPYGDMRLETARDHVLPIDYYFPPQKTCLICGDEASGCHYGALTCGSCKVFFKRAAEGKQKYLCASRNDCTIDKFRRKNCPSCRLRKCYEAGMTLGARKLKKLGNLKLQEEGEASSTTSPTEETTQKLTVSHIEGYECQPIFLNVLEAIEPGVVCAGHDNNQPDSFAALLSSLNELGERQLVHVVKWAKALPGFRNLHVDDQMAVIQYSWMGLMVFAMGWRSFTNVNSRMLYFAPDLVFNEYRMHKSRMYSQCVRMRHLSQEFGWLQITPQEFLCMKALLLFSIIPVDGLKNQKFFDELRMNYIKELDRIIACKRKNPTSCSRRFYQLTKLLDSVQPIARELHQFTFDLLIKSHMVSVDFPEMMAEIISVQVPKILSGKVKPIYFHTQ

[3] = tested on: estrogen receptor-positive and estrogen receptor-negative breast cancer cell lines; conditions: inducing apoptosis in a concentration-dependent manner
[4] = tested on: nontumorigenic mammary cells
breast tumors = conditions: mice models

CB1 receptor, sequence (P21554 whole entry): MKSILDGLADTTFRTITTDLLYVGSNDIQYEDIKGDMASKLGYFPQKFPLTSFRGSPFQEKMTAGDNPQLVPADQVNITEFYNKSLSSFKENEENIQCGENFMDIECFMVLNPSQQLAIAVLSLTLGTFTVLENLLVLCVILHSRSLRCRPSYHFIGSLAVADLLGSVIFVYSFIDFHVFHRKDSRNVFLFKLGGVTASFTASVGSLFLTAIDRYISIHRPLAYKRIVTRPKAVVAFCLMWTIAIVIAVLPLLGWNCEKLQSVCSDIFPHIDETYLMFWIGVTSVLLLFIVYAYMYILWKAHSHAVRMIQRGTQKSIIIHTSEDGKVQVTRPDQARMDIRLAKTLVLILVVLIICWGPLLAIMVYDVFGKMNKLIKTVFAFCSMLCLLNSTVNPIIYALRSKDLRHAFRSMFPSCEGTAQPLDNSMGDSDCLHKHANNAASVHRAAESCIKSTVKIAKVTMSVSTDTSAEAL

For `CCCc1cc(O)c2c(c1)OC(C)(C)[C@@H]1CCC(C)=C[C@@H]21` [THCV, Tetrahydrocannabivarin], the “CB1 receptor mode of action” value (CB1 receptor) is given as “antagonist”.

In the case of vitamin E, the “reduction in breast cancer incidence” value (pre-menopausal women with a family history of breast cancer, highest quantity of vitamin E consumed) is given as 43% and the “risk reduction of breast cancer” value (women without a family history of breast cancer) is given as 16%.

In the case of `CCCCCc1cc(O)c2c(c1)OC(C)(C)[C@@H]1CCC(C)=C[C@@H]21` [THC, Tetrahydrocannabinol], the “time after administration at which pain reduction effects were felt (average)” value ([1]; cold-pressor test) is given as 180 min, the pain sensitivity ([1]; cold-pressor test after administration, smoked marijuana or oral dronabinol capsules 10 mg or 20 mg) is given as “decreased pain sensitivity” and the duration of effects ([1]; dronabinol compared with smoked marijuana) is given as “lasted longer than smoked marijuana”. The apoptosis (prostate cell line, PC-3) was “causes apoptosis” and the “specific binding of dihydroxytestosterone to the androgen receptor” value [2] was “inhibits specific binding”.

In the case of `C=C(C)[C@@H]1CCC(C)=C[C@H]1c1c(O)cc(CCCCC)cc1O` [CBD, Cannabidiol], the “survival of breast cancer cell lines” value [3] is given as “inhibited the survival”, the “effect on nontumorigenic mammary cells” value [4] is given as “little effect” and the “effect on breast tumors” value (breast tumors) is given as “shrink breast tumors, and obstruct growth and metastasis”. The “affinity to cannabinoid receptors” value (cannabinoid receptors) was “low affinity”.
